Test results from PMC5309722, “A substrate-bound structure of cyanobacterial biliverdin reductase identifies stacked substrates as critical for activity” (Nature Communications, 2017).

Experiments:
Syn BVR [1] = target: T1, Syn BVR (Synechocystis sp. PCC 6803, UniProt P72782); experiment: reduction of biliverdin in crystal and solution; assay type: biochemical; details: biliverdin as co-substrate; crystallization solution
T1 construct: gene bvdR; full length, 328 residues; N-terminal His6 tag (pET15b), E. coli C41(DE3); tag cut with thrombin for crystals

human BVR = target: T2, human BVR (Homo sapiens, UniProt P53004); experiment: optical titration, difference absorption; assay type: binding; details: 5 mM NADP+, 200 mM Tris-HCl pH 8.75, 28 °C; two biliverdins bound
T2 construct: gene BLVRA; C-terminal His tag (pET21a(+)), codon-optimized synthetic gene, E. coli BL21(DE3)
T2 sequence (P53004 1-296 limits assumed): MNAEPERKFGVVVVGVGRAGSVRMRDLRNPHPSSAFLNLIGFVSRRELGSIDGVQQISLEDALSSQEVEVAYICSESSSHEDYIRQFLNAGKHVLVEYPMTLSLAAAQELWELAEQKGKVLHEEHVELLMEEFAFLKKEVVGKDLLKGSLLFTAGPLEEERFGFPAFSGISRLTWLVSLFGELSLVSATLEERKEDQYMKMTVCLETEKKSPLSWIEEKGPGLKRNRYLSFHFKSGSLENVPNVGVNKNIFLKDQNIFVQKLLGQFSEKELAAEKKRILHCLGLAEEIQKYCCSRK

Syn BVR [2] = target: T1, Syn BVR; experiment: X-ray crystal structure, co-crystal, […] Å; also optical titration; assay type: binding; details: ternary complex with NADP+; two stacked biliverdins (proximal and distal) in active site
rat BVR = target: T3, rat BVR (Rattus norvegicus, UniProt P46844); experiment: optical titration, difference absorption; assay type: binding; details: 5 mM NADP+, 200 mM Tris-HCl pH 8.75, 28 °C; two biliverdins bound
T3 construct: gene Blvra; C-terminal His tag (pET21a-rat bvr), E. coli BL21(DE3)
T3 sequence (P46844 1-295 limits assumed): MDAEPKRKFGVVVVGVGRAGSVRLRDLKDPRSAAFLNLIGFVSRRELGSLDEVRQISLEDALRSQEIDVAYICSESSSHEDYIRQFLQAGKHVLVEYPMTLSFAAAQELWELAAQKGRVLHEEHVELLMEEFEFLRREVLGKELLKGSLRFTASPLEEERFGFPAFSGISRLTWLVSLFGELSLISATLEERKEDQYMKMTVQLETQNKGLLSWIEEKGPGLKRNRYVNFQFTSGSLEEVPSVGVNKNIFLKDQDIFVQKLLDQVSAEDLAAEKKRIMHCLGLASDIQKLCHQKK

T1 sequence (P72782 entry or part of it): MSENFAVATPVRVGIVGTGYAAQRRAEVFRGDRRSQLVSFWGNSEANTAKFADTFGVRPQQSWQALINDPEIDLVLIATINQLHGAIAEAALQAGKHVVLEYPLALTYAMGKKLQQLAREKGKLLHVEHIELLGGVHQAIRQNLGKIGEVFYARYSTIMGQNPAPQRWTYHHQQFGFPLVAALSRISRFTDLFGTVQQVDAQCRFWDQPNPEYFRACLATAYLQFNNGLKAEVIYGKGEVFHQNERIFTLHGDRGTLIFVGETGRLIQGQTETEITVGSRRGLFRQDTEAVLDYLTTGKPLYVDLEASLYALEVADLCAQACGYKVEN

Compound	reduction of biliverdin in crystal and solution (Syn BVR [1])	optical titration, difference absorption (human BVR)	X-ray crystal structure, co-crystal, 2.6 Å; also optical titration (Syn BVR [2])	optical titration, difference absorption (rat BVR)
NC(=O)C1=CN([C@@H]2O[C@H](COP(=O)(O)OP(=O)(O)OC[C@H]3O[C@@H](n4cnc5c(N)ncnc54)[C@H](OP(=O)(O)O)[C@@H]3O)[C@@H](O)[C@H]2O)C=CC1 [NADPH]	BV could be rapidly (as in the mixing time) reduced to BR by addition of NADPH			
C=CC1=C(C)/C(=C/c2[nH]c(/C=C3N=C(/C=C4\NC(=O)C(C)=C4C=C)C(C)=C\3CCC(=O)O)c(CCC(=O)O)c2C)NC1=O [biliverdin IXα]		two BV molecules bound in both human and rat BVRs	two BV molecules are bound to the catalytic cleft between the two domains	two BV molecules bound in both human and rat BVRs
